Experiments:
[1] = test system: SIV integrase G118R (SIV IN RTV pseudovirus); type: cell-based; settings: G118R SIV integrase mutant
RT-SHIV = experiment: Plasma SHIV RNA (RT-PCR) in RT-SHIV-infected macaques treated with CAB LA; settings: for Median VL treated: median of treated macaques
Method: CAB LA (200 mg/mL injectable stock aqueous suspension) was given at a dose of 50 mg kg^−1 under anesthesia by intramuscular injection into the quadriceps. Volumes greater than 1.0 mL were divided into two injection sites.

## C[C@H]1CO[C@@H]2Cn3cc(C(=O)NCc4ccc(F)cc4F)c(=O)c(O)c3C(=O)N12 [CAB, cabotegravir]
[1]
  fold-change relative to wild type integrase: > 840 fold
RT-SHIV; macaque 01D520, day 14
  SHIV RNA copies/ml: 213778 copies/ml
RT-SHIV; macaque 01D520, day 16
  SHIV RNA copies/ml: 25703 copies/ml
RT-SHIV; macaque 01D520, day 18
  SHIV RNA copies/ml: 6247 copies/ml
RT-SHIV; macaque 01D520, day 22
  SHIV RNA copies/ml: 1187 copies/ml
RT-SHIV; macaque 01D520, day 25
  SHIV RNA copies/ml: 478 copies/ml
RT-SHIV; macaque 01D520, day 29
  SHIV RNA copies/ml: 2040 copies/ml
RT-SHIV; macaque 01D520, day 32
  SHIV RNA copies/ml: 390 copies/ml
RT-SHIV; macaque 01D520, day 36
  SHIV RNA copies/ml: 49 copies/ml
RT-SHIV; macaque 01D520, day 39
  SHIV RNA copies/ml: 316 copies/ml
RT-SHIV; macaque 01D520, day 43
  SHIV RNA copies/ml: 144 copies/ml
RT-SHIV; macaque 01D520, day 46
  SHIV RNA copies/ml: 49 copies/ml
RT-SHIV; macaque 01D520, day 50
  SHIV RNA copies/ml: 49 copies/ml
RT-SHIV; macaque 01D520, day 53
  SHIV RNA copies/ml: 71 copies/ml
RT-SHIV; macaque 01D520, day 57
  SHIV RNA copies/ml: 49 copies/ml
RT-SHIV; macaque 01D520, day 60
  SHIV RNA copies/ml: 49 copies/ml
RT-SHIV; macaque 01D520, day 64
  SHIV RNA copies/ml: 49 copies/ml
RT-SHIV; macaque 01D520, day 67
  SHIV RNA copies/ml: 250 copies/ml
RT-SHIV; macaque 10D181, day 14
  SHIV RNA copies/ml: 179379 copies/ml
RT-SHIV; macaque 10D181, day 16
  SHIV RNA copies/ml: 39172 copies/ml
RT-SHIV; macaque 10D181, day 18
  SHIV RNA copies/ml: 9142 copies/ml
RT-SHIV; macaque 10D181, day 22
  SHIV RNA copies/ml: 2006 copies/ml
RT-SHIV; macaque 10D181, day 25
  SHIV RNA copies/ml: 507 copies/ml
RT-SHIV; macaque 10D181, day 29
  SHIV RNA copies/ml: 2459 copies/ml
RT-SHIV; macaque 10D181, day 32
  SHIV RNA copies/ml: 444 copies/ml
RT-SHIV; macaque 10D181, day 36
  SHIV RNA copies/ml: 906 copies/ml
RT-SHIV; macaque 10D181, day 39
  SHIV RNA copies/ml: 1839 copies/ml
RT-SHIV; macaque 10D181, day 43
  SHIV RNA copies/ml: 2744 copies/ml
RT-SHIV; macaque 10D181, day 46
  SHIV RNA copies/ml: 344 copies/ml
RT-SHIV; macaque 10D181, day 50
  SHIV RNA copies/ml: 294 copies/ml
RT-SHIV; macaque 10D181, day 53
  SHIV RNA copies/ml: 756 copies/ml
RT-SHIV; macaque 10D181, day 57
  SHIV RNA copies/ml: 241 copies/ml
RT-SHIV; macaque 10D181, day 60
  SHIV RNA copies/ml: 971 copies/ml
RT-SHIV; macaque 10D181, day 64
  SHIV RNA copies/ml: 2139 copies/ml
RT-SHIV; macaque 33996, day 14
  SHIV RNA copies/ml: 154663 copies/ml
RT-SHIV; macaque 33996, day 16
  SHIV RNA copies/ml: 9000 copies/ml
RT-SHIV; macaque 33996, day 18
  SHIV RNA copies/ml: 1964 copies/ml
RT-SHIV; macaque 33996, day 22
  SHIV RNA copies/ml: 112 copies/ml
RT-SHIV; macaque 33996, day 25
  SHIV RNA copies/ml: 141 copies/ml
RT-SHIV; macaque 33996, day 29
  SHIV RNA copies/ml: 25 copies/ml
RT-SHIV; macaque 33996, day 32
  SHIV RNA copies/ml: 55 copies/ml
RT-SHIV; macaque 33996, day 36
  SHIV RNA copies/ml: 49 copies/ml
RT-SHIV; macaque 33996, day 39
  SHIV RNA copies/ml: 49 copies/ml
RT-SHIV; macaque 33996, day 43
  SHIV RNA copies/ml: 49 copies/ml
RT-SHIV; macaque 33996, day 46
  SHIV RNA copies/ml: 49 copies/ml
RT-SHIV; macaque 33996, day 50
  SHIV RNA copies/ml: 49 copies/ml
RT-SHIV; macaque 33996, day 53
  SHIV RNA copies/ml: 49 copies/ml
RT-SHIV; macaque 33996, day 57
  SHIV RNA copies/ml: 49 copies/ml
RT-SHIV; macaque 33996, day 60
  SHIV RNA copies/ml: 14 copies/ml
RT-SHIV; macaque 33996, day 64
  SHIV RNA copies/ml: 59 copies/ml
RT-SHIV; macaque 35451, day 14
  SHIV RNA copies/ml: 32948 copies/ml
RT-SHIV; macaque 35451, day 16
  SHIV RNA copies/ml: 24534 copies/ml
RT-SHIV; macaque 35451, day 18
  SHIV RNA copies/ml: 5566 copies/ml
RT-SHIV; macaque 35451, day 22
  SHIV RNA copies/ml: 189 copies/ml
RT-SHIV; macaque 35451, day 25
  SHIV RNA copies/ml: 365 copies/ml
RT-SHIV; macaque 35451, day 29
  SHIV RNA copies/ml: 487 copies/ml
RT-SHIV; macaque 35451, day 32
  SHIV RNA copies/ml: 189 copies/ml
RT-SHIV; macaque 35451, day 36
  SHIV RNA copies/ml: 262 copies/ml
RT-SHIV; macaque 35451, day 39
  SHIV RNA copies/ml: 194 copies/ml
RT-SHIV; macaque 35451, day 43
  SHIV RNA copies/ml: 240 copies/ml
RT-SHIV; macaque 35451, day 46
  SHIV RNA copies/ml: 77 copies/ml
RT-SHIV; macaque 35451, day 50
  SHIV RNA copies/ml: 318 copies/ml
RT-SHIV; macaque 35451, day 53
  SHIV RNA copies/ml: 134 copies/ml
RT-SHIV; macaque 35451, day 57
  SHIV RNA copies/ml: 132 copies/ml
RT-SHIV; macaque 35451, day 60
  SHIV RNA copies/ml: 90 copies/ml
RT-SHIV; macaque 35451, day 64
  SHIV RNA copies/ml: 800 copies/ml
RT-SHIV; macaque 35451, day 67
  SHIV RNA copies/ml: 104 copies/ml
RT-SHIV; macaque CH54, day 14
  SHIV RNA copies/ml: 680147 copies/ml
RT-SHIV; macaque CH54, day 16
  SHIV RNA copies/ml: 142531 copies/ml
RT-SHIV; macaque CH54, day 18
  SHIV RNA copies/ml: 87386 copies/ml
RT-SHIV; macaque CH54, day 22
  SHIV RNA copies/ml: 4318 copies/ml
RT-SHIV; macaque CH54, day 25
  SHIV RNA copies/ml: 279 copies/ml
RT-SHIV; macaque CH54, day 29
  SHIV RNA copies/ml: 2506 copies/ml
RT-SHIV; macaque CH54, day 32
  SHIV RNA copies/ml: 3049 copies/ml
RT-SHIV; macaque CH54, day 36
  SHIV RNA copies/ml: 1291 copies/ml
RT-SHIV; macaque CH54, day 39
  SHIV RNA copies/ml: 1031 copies/ml
RT-SHIV; macaque CH54, day 43
  SHIV RNA copies/ml: 750 copies/ml
RT-SHIV; macaque CH54, day 46
  SHIV RNA copies/ml: 485 copies/ml
RT-SHIV; macaque CH54, day 50
  SHIV RNA copies/ml: 803 copies/ml
RT-SHIV; macaque CH54, day 53
  SHIV RNA copies/ml: 49 copies/ml
RT-SHIV; macaque CH54, day 57
  SHIV RNA copies/ml: 158 copies/ml
RT-SHIV; macaque CH54, day 60
  SHIV RNA copies/ml: 2633 copies/ml
RT-SHIV; macaque CH54, day 64
  SHIV RNA copies/ml: 1132 copies/ml
RT-SHIV; macaque CH54, day 67
  SHIV RNA copies/ml: 4979 copies/ml
RT-SHIV; macaque CJ92, day 14
  SHIV RNA copies/ml: 87372 copies/ml
RT-SHIV; macaque CJ92, day 16
  SHIV RNA copies/ml: 9159 copies/ml
RT-SHIV; macaque CJ92, day 18
  SHIV RNA copies/ml: 1727 copies/ml
RT-SHIV; macaque CJ92, day 22
  SHIV RNA copies/ml: 101 copies/ml
RT-SHIV; macaque CJ92, day 25
  SHIV RNA copies/ml: 49 copies/ml
RT-SHIV; macaque CJ92, day 29
  SHIV RNA copies/ml: 423 copies/ml
RT-SHIV; macaque CJ92, day 32
  SHIV RNA copies/ml: 300 copies/ml
RT-SHIV; macaque CJ92, day 36
  SHIV RNA copies/ml: 57 copies/ml
RT-SHIV; macaque CJ92, day 39
  SHIV RNA copies/ml: 270 copies/ml
RT-SHIV; macaque CJ92, day 43
  SHIV RNA copies/ml: 49 copies/ml
RT-SHIV; macaque CJ92, day 46
  SHIV RNA copies/ml: 108 copies/ml
RT-SHIV; macaque CJ92, day 50
  SHIV RNA copies/ml: 163 copies/ml
RT-SHIV; macaque CJ92, day 53
  SHIV RNA copies/ml: 49 copies/ml
RT-SHIV; macaque CJ92, day 57
  SHIV RNA copies/ml: 49 copies/ml
RT-SHIV; macaque CJ92, day 60
  SHIV RNA copies/ml: 49 copies/ml
RT-SHIV; macaque CJ92, day 64
  SHIV RNA copies/ml: 49 copies/ml
RT-SHIV; macaque CJ92, day 67
  SHIV RNA copies/ml: 50 copies/ml
RT-SHIV; day 0
  Median VL treated: 49 copies/ml
RT-SHIV; day 2
  Median VL treated: 21683 copies/ml
RT-SHIV; day 4
  Median VL treated: 196903 copies/ml
RT-SHIV; day 7
  Median VL treated: 674920 copies/ml
RT-SHIV; day 9
  Median VL treated: 6944678 copies/ml
RT-SHIV; day 11
  Median VL treated: 4288688 copies/ml
RT-SHIV; day 14
  Median VL treated: 167021 copies/ml
RT-SHIV; day 16
  Median VL treated: 25119 copies/ml
RT-SHIV; day 18
  Median VL treated: 5906 copies/ml
RT-SHIV; day 22
  Median VL treated: 688 copies/ml
RT-SHIV; day 25
  Median VL treated: 322 copies/ml
RT-SHIV; day 29
  Median VL treated: 1263 copies/ml
RT-SHIV; day 32
  Median VL treated: 345 copies/ml
RT-SHIV; day 36
  Median VL treated: 160 copies/ml
RT-SHIV; day 39
  Median VL treated: 293 copies/ml
RT-SHIV; day 43
  Median VL treated: 192 copies/ml
RT-SHIV; day 46
  Median VL treated: 92 copies/ml
RT-SHIV; day 50
  Median VL treated: 229 copies/ml
RT-SHIV; day 53
  Median VL treated: 60 copies/ml
RT-SHIV; day 57
  Median VL treated: 91 copies/ml
RT-SHIV; day 60
  Median VL treated: 69 copies/ml
RT-SHIV; day 64
  Median VL treated: 429 copies/ml
RT-SHIV; day 67
  Median VL treated: 85 copies/ml
RT-SHIV; day 71
  Median VL treated: 205 copies/ml
RT-SHIV; day 74
  Median VL treated: 49 copies/ml
RT-SHIV; day 78
  Median VL treated: 76 copies/ml
RT-SHIV; day 81
  Median VL treated: 64 copies/ml
RT-SHIV; day 85
  Median VL treated: 85 copies/ml
RT-SHIV; day 88
  Median VL treated: 61 copies/ml
RT-SHIV; day 92
  Median VL treated: 59 copies/ml
RT-SHIV; day 95
  Median VL treated: 80 copies/ml
RT-SHIV; day 102
  Median VL treated: 49 copies/ml
RT-SHIV; day 106
  Median VL treated: 61 copies/ml
RT-SHIV; day 115
  Median VL treated: 2657 copies/ml
RT-SHIV; day 120
  Median VL treated: 15539 copies/ml
RT-SHIV; day 134
  Median VL treated: 2817 copies/ml
RT-SHIV; day 143
  Median VL treated: 2103 copies/ml
RT-SHIV; day 148
  Median VL treated: 2164 copies/ml
RT-SHIV; day 155
  Median VL treated: 1667 copies/ml
RT-SHIV; day 162
  Median VL treated: 1714 copies/ml
RT-SHIV; day 170
  Median VL treated: 1307 copies/ml
RT-SHIV; day 176
  Median VL treated: 558 copies/ml
RT-SHIV; day 183
  Median VL treated: 4928 copies/ml
RT-SHIV; day 190
  Median VL treated: 6516 copies/ml
RT-SHIV; day 197
  Median VL treated: 8692 copies/ml
RT-SHIV; day 204
  Median VL treated: 9657 copies/ml

— article PMC6494879, “Drug resistance emergence in macaques administered cabotegravir long-acting for pre-exposure prophylaxis during acute SHIV infection” (Nature Communications, 2019)
